Data reported in patent US6455593B1, “Method of dynamic retardation of cell cycle kinetics to potentiate cell damage” (priority 1995, dated 2002).
Read-outs that look alike come from different tables or passages of the source.

Experiments:
[1] = system: human promonocytic lymphoma cells (U937); assay: Microculture indicator system (MIS), MTT growth inhibition assay with bivariate serial dilutions; type: cell-based
In short: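 U937 human promonocytic lymphoma cells were tested in flat-bottom 96-well plates. Two agents were each diluted two-fold by serial mixing, then combined into bivariate dilution series before about 1×10^5 cells per well were added in RPMI 1640 with 10% Nurserum and antibiotics, 100 μl per well. Plates were incubated at 37° C. Thirty μl of 0.5% MTT was then added for 3 hr. Formazan was dissolved overnight with 120 μl of 10 % SDS/0.01 N HCl and absorbance was read at 570 nm against a cell-free blank.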

[2] = system: U937 cells; assay: Flow cytometric cell cycle analysis (propidium iodide); type: cell-based, human; conditions: U937
Experimental: Flow cytometric analyses were performed with a Coulter Epics System (purchased from Coulter Corp, Hialeah, Fla.). Cells were disrupted in buffer with 0.1% Triton-X 100 (or 0.6 % NP-40), so that the nuclei could be stained with 0.05% propidium iodide (PI). See Shapiro N M, Practical Flow Cytometry, Man R Liss, NY (1988); Nicoletti I et al., J Immunol Methods 139:271-9 (1991). Analyses of 10,000 nuclei were performed with graduated concentrations of dThd at serial time points. Histograms of PI fluorescent emissions at 675±10 nm were used to discriminate cell cycle fractions of the target population. The proportion of cells in each phase of the cell cycle is represented by stack bars above the X-axis as a fraction of those cells with intact DNA structure. The fraction of cells with depleted DNA in each sample is represented below the X-axis as a percentage of the total cell number. Cells with depleted DNA are presumed apoptotic. Crompton S T et. al. Biophys. Biochem. Res. Comm. 183:532-537 (1992). Each stack bar in FIG. 5 represents the cell cycle distribution of a population sample of >10,000 cells, analyzed for each indicated dThd concentration at indicated treatment times.
Flow cytometric analyses were performed as in Example 2. The results are shown in plot A of FIG. 5 from Example 2.
The U937 cells were exposed to a range of concentrations below the IC40 and sampled for flow cytometry at intervals of 8, 16, and 24 hours. Flow cytometric analysis was performed as described in Example 2.

[3] = system: Burkitt's lymphoma cell line Raji; assay: MIS MTT growth inhibition assay; type: cell-based, human; conditions: Raji cells (Tk deficient)
[4] = Homo sapiens, U-937, 4 h, U937, dThd […] 4 H, Cisplatin 0, read-out: MTT % inhibition, dThd only

Cc1cn([C@H]2C[C@H](O)[C@@H](CO)O2)c(=O)[nH]c1=O [dThd, deoxythymidine]
inhibition at 10 µM ([1]; Homo sapiens, U-937, 4 h, U937, dThd 0.01 mM 4 H, no Cisplatin, read-out: MTT % inhibition, dThd only): 7% | inhibition at 10 µM ([1]; Homo sapiens, U-937, 4 h, U937, dThd 0.01 mM (column 8, lowest) 4 H, no Cisplatin, read-out: MTT % inhibition, dThd only): 4% | inhibition at 20 µM ([1]; Homo sapiens, U-937, 4 h, U937, dThd 0.02 mM 4 H, no Cisplatin, read-out: MTT % inhibition, dThd only): 12% | inhibition at 50 µM ([1]; Homo sapiens, U-937, 4 h, U937, dThd 0.05 mM 4 H, no Cisplatin, read-out: MTT % inhibition, dThd only): 19% | inhibition at 90 µM ([1]; Homo sapiens, U-937, 4 h, U937, dThd 0.09 mM 4 H, Cisplatin 0, read-out: MTT % inhibition, dThd only): 22% | inhibition at 3000 µM ([1]; Homo sapiens, U-937, 4 h, U937, dThd 3.00 mM 4 H, Cisplatin 0, read-out: MTT % inhibition, dThd only): 56% | inhibition at 190 µM [1, 4]: 29% | inhibition at 380 µM [1, 4]: 32% | inhibition at 760 µM [1, 4]: 40% | inhibition at 1500 µM [1, 4]: 48% | inhibition at 10 µM ([1]; Homo sapiens, U-937, U937, dThd 0.01 mM (c20) for 0 H (added with STSP), STSP for 18 H, total 18 H, STSP nM: 100,50,25,12.6,6.25,3.13, r28 dThd alone, read-out: Growth inhibition (MTT), dThd for 0 H, dThd 0.01 mM (ninth dilution)): 4% | inhibition at 10 µM ([1]; Homo sapiens, U-937, U937, dThd 0.01 mM (c20) for 4 H, STSP for 14 H, total 18 H, STSP nM: 100,50,25,12.5,6.25,3.125, r14 dThd alone, read-out: Growth inhibition (MTT), dThd 0.01 mM (ninth dilution)): -2% | inhibition at 10 µM ([1]; Homo sapiens, U-937, U937, dThd 0.01 mM (c22, last dilution) for 0 H (added with STSP), STSP for 18 H, total 18 H, STSP nM: 100,50,25,12.6,6.25,3.13, r28 dThd alone, read-out: Growth inhibition (MTT), dThd for 0 H, dThd 0.01 mM (tenth, last dilution)): 3% | inhibition at 10 µM ([1]; Homo sapiens, U-937, U937, dThd 0.01 mM (c22, last two-fold dilution) for 4 H, STSP for 14 H, total 18 H, STSP nM: 100,50,25,12.5,6.25,3.125, r14 dThd alone, read-out: Growth inhibition (MTT), dThd 0.01 mM (tenth, last dilution)): -7% | inhibition at 20 µM ([1]; Homo sapiens, U-937, U937, dThd 0.02 mM for 0 H (added with STSP), STSP for 18 H, total 18 H, STSP nM: 100,50,25,12.6,6.25,3.13, r28 dThd alone, read-out: Growth inhibition (MTT), dThd for 0 H, dThd 0.02 mM): 6% | inhibition at 20 µM ([1]; Homo sapiens, U-937, U937, dThd 0.02 mM for 4 H, STSP for 14 H, total 18 H, STSP nM: 100,50,25,12.5,6.25,3.125, r14 dThd alone, read-out: Growth inhibition (MTT), dThd 0.02 mM): 11% | inhibition at 50 µM ([1]; Homo sapiens, U-937, U937, dThd 0.05 mM for 4 H, STSP for 14 H, total 18 H, STSP nM: 100,50,25,12.5,6.25,3.125, r14 dThd alone, read-out: Growth inhibition (MTT), dThd 0.05 mM): 10% | inhibition at 60 µM ([1]; Homo sapiens, U-937, U937, dThd 0.06 mM for 0 H (added with STSP), STSP for 18 H, total 18 H, STSP nM: 100,50,25,12.6,6.25,3.13, r28 dThd alone, read-out: Growth inhibition (MTT), dThd for 0 H, dThd 0.06 mM): 10% | inhibition at 90 µM ([1]; Homo sapiens, U-937, U937, dThd 0.09 mM for 0 H (added with STSP), STSP for 18 H, total 18 H, STSP nM: 100,50,25,12.6,6.25,3.13, r28 dThd alone, read-out: Growth inhibition (MTT), dThd for 0 H, dThd 0.09 mM): 12% | inhibition at 90 µM ([1]; Homo sapiens, U-937, U937, dThd 0.09 mM for 4 H, STSP for 14 H, total 18 H, STSP nM: 100,50,25,12.5,6.25,3.125, r14 dThd alone, read-out: Growth inhibition (MTT), dThd 0.09 mM): 14% | inhibition at 3000 µM ([1]; Homo sapiens, U-937, U937, dThd 3.00 mM for 0 H (added with STSP), STSP for 18 H, total 18 H, STSP nM: 100,50,25,12.6,6.25,3.13, r28 dThd alone, read-out: Growth inhibition (MTT), dThd for 0 H, dThd 3.00 mM): 38% | inhibition at 3000 µM ([1]; Homo sapiens, U-937, U937, dThd 3.00 mM for 4 H, STSP for 14 H, total 18 H, STSP nM: 100,50,25,12.5,6.25,3.125, r14 dThd alone, read-out: Growth inhibition (MTT), dThd 3.00 mM): 50% | inhibition at 190 µM ([1]; Homo sapiens, U-937, read-out: Growth inhibition (MTT), dThd […], U937, dThd […] for 4 H, STSP for 14 H, total 18 H, STSP nM: 100,50,25,12.5,6.25,3.125, r14 dThd alone, read-out: Growth inhibition (MTT), dThd 0.19 mM): 18% | inhibition at 380 µM ([1]; Homo sapiens, U-937, read-out: Growth inhibition (MTT), dThd […], U937, dThd […] for 4 H, STSP for 14 H, total 18 H, STSP nM: 100,50,25,12.5,6.25,3.125, r14 dThd alone, read-out: Growth inhibition (MTT), dThd 0.38 mM): 23% | inhibition at 750 µM ([1]; Homo sapiens, U-937, read-out: Growth inhibition (MTT), dThd […], U937, dThd […] for 4 H, STSP for 14 H, total 18 H, STSP nM: 100,50,25,12.5,6.25,3.125, r14 dThd alone, read-out: Growth inhibition (MTT), dThd 0.75 mM): 34% | inhibition at 1500 µM ([1]; Homo sapiens, U-937, read-out: Growth inhibition (MTT), dThd […], U937, dThd […] for 4 H, STSP for 14 H, total 18 H, STSP nM: 100,50,25,12.5,6.25,3.125, r14 dThd alone, read-out: Growth inhibition (MTT), dThd 1.5 mM): 41% | inhibition at 190 µM ([1]; Homo sapiens, U-937, read-out: Growth inhibition (MTT), dThd for 0 H, dThd […], U937, dThd […] for 0 H (added with STSP), STSP for 18 H, total 18 H, STSP nM: 100,50,25,12.6,6.25,3.13, r28 dThd alone, read-out: Growth inhibition (MTT), dThd for 0 H, dThd 0.19 mM): 15% | inhibition at 380 µM ([1]; Homo sapiens, U-937, read-out: Growth inhibition (MTT), dThd for 0 H, dThd […], U937, dThd […] for 0 H (added with STSP), STSP for 18 H, total 18 H, STSP nM: 100,50,25,12.6,6.25,3.13, r28 dThd alone, read-out: Growth inhibition (MTT), dThd for 0 H, dThd 0.38 mM): 20% | inhibition at 760 µM ([1]; Homo sapiens, U-937, read-out: Growth inhibition (MTT), dThd for 0 H, dThd […], U937, dThd […] for 0 H (added with STSP), STSP for 18 H, total 18 H, STSP nM: 100,50,25,12.6,6.25,3.13, r28 dThd alone, read-out: Growth inhibition (MTT), dThd for 0 H, dThd 0.76 mM): 27% | inhibition at 1500 µM ([1]; Homo sapiens, U-937, read-out: Growth inhibition (MTT), dThd for 0 H, dThd […], U937, dThd […] for 0 H (added with STSP), STSP for 18 H, total 18 H, STSP nM: 100,50,25,12.6,6.25,3.13, r28 dThd alone, read-out: Growth inhibition (MTT), dThd for 0 H, dThd 1.50 mM): 33% | Enhancement of DEET-induced apoptosis as prospective RA ([1]; MTT tests, about 0.05 to 3 mM, preliminary results): no significant enhancement of the DEET-induced apoptosis | dThd concentration at maximum difference between the plots for O and S ([1]; O/S plots of dThd and STSP, FIG. 15, U937): approximately 0.1 mM | RA concentration for STSP potentiation relative to concentration causing cell cycle arrest ([1]; U937): at least one log lower | Combined results ratio (CRR), dThd for 0 H, dThd 0.02 mM ([1]; U937, dThd 0.02 mM for 0 H (added with STSP), STSP for 18 H, total 18 H, STSP nM: 100,50,25,12.6,6.25,3.13, r27 dThd alone): 1.0 | Combined results ratio (CRR), dThd 0.02 mM ([1]; U937, dThd 0.02 mM for 4 H, STSP for 14 H, total 18 H, STSP nM: 100,50,25,12.5,6.25,3.125, r13 dThd alone): 1.0 | Combined results ratio (CRR), dThd 0.05 mM ([1]; U937, dThd 0.05 mM for 4 H, STSP for 14 H, total 18 H, STSP nM: 100,50,25,12.5,6.25,3.125, r13 dThd alone): 1.0 | Combined results ratio (CRR), dThd for 0 H, dThd 0.06 mM ([1]; U937, dThd 0.06 mM for 0 H (added with STSP), STSP for 18 H, total 18 H, STSP nM: 100,50,25,12.6,6.25,3.13, r27 dThd alone): 1.0 | Combined results ratio (CRR), dThd for 0 H, dThd 0.09 mM ([1]; U937, dThd 0.09 mM for 0 H (added with STSP), STSP for 18 H, total 18 H, STSP nM: 100,50,25,12.6,6.25,3.13, r27 dThd alone): 1.0 | Combined results ratio (CRR), dThd 0.09 mM ([1]; U937, dThd 0.09 mM for 4 H, STSP for 14 H, total 18 H, STSP nM: 100,50,25,12.5,6.25,3.125, r13 dThd alone): 1.0 | Combined results ratio (CRR), dThd for 0 H, dThd 3.00 mM ([1]; U937, dThd 3.00 mM for 0 H (added with STSP), STSP for 18 H, total 18 H, STSP nM: 100,50,25,12.6,6.25,3.13, r27 dThd alone): 1.0 | Combined results ratio (CRR), dThd 3.00 mM ([1]; U937, dThd 3.00 mM for 4 H, STSP for 14 H, total 18 H, STSP nM: 100,50,25,12.5,6.25,3.125, r13 dThd alone): 1.0 | Combined results ratio (CRR), dThd for 0 H, dThd […] ([1]; U937, dThd […] for 0 H (added with STSP), STSP for 18 H, total 18 H, STSP nM: 100,50,25,12.6,6.25,3.13, r27 dThd alone): 1.0 | Combined results ratio (CRR), dThd […] ([1]; U937, dThd […] for 4 H, STSP for 14 H, total 18 H, STSP nM: 100,50,25,12.5,6.25,3.125, r13 dThd alone): 1.0 | combined results ratio, dThd only (baseline line) ([1]; U937, dThd alone, every dThd concentration 3.00-0.01 mM): 1.0 | Effect on cell cycle progression ([2]; 0.2 mM dThd): permitted continuous cell transit | Effect on cell cycle progression ([2]; 3 mM dThd): arrested cell cycle progression at G1/S | IC40, growth inhibition [3]: > 4 mM
